What was measured:
Type in all cases: in vitro ADME
in vitro = settings: microsomes
Description: The unbound fractions of IDP-73152 in various matrices were measured according to the manufacturer’s instructions for the rapid equilibrium dialysis (RED) device (ThermoFisher Scientific, Waltham, MA, USA). Briefly, IDP-73152 was added to the plasma or the microsomal/hepatocyte incubation buffer from various species (i.e., mouse, rat, dog, and human for microsomal incubation; rat for hepatocyte incubation) to obtain final concentrations of the compound at 0.3, 1, and 3 μM. After the membrane insert was placed in the RED plate, the solution containing IDP-73152 was added (400 µL) to the sample chamber, and the dialysis buffer (600 μL) was added to the buffer chamber. The RED plate was sealed with parafilm and then incubated at 37 °C in the orbital shaker (Lab Companion, Daejeon, Korea) at 100 rpm for 5 h. After a 50 μL aliquot was aspirated from both the sample and buffer chambers, an equal volume of protein-free buffer or blank medium was replaced in the aspirated sample or buffer to render the matrices compositionally identical. The IDP-73152 concentration in the buffer/sample chambers (i.e., CBuffer Chamber and CSample Chamber) was determined by an assay. Thus, the fraction unbound was defined as:(2) % Fraction unbound=(CBuffer Chamber/CSample Chamber)×100%

[1] = Metabolic stability in liver microsomes, human
Description: In this study, the metabolic stability of IDP-73152 in microsomes from mice, rats, dogs, and humans, as well as rat hepatocytes, was determined. For a microsomal incubation study, the incubation mixtures, containing mouse, rat, dog, or human liver microsomes at a protein concentration of 0.5 mg/mL, 3.3 mM MgCl2, and 1.3 mM NADPH, in a 100 mM potassium phosphate buffer (pH 7.4), were preincubated for 3 min at 37 °C. In parallel, a control incubation mixture (i.e., identical composition to that of the incubation mixture without NADPH) was also prepared for comparison. The reaction was initiated by the addition of a 10 × solution of IDP-73152 (final concentration in mixtures of 1 μM) to the incubation mixtures or the control incubation mixtures. The mixtures were incubated in a shaking water bath (37 °C, 90 rpm). Aliquots (30 μL) were collected at 0, 15, 30, and 45 min from the mixture and the reaction was terminated by the addition of a 4-fold volume of ice-cold acetonitrile to the sample. The mixture was then vortexed for 5 min and centrifuged for 10 min at 10,000× g. The supernatant was collected and stored at -80 °C until the analysis. For the hepatocyte incubation study, rat hepatocytes were freshly prepared using the two-step collagenase perfusion method with slight modifications. After the isolation, cell viability during the preparation process was first determined by a trypan blue exclusion assay prior to the stability study. The preparation was considered adequate for subsequent studies if the viability was greater than 80%. When appropriate, the hepatocytes were resuspended in Williams' media E containing 10% fetal bovine serum, 1% penicillin-streptomycin, and 0.01% insulin-transferrin-selenium (i.e., 10 mg/mL insulin, 5.5 mg/mL transferrin, and 5 mg/mL selenium) at pH 7.4. The reaction was carried out with the hepatocyte suspension prepared at 1 × 10^6 cells/mL (0.5 mL) and initiated by the addition of equal volume of IDP-73152 solution (i.e., final concentration of the compound at 1 μM in 0.5 × 10^6 cells/mL of hepatocytes) to the hepatocyte suspension. […] Assuming first-order disappearance kinetics, the slope k of the logarithmically transformed IDP-73152 concentration in the sample versus time plot was determined by the linear regression analysis of the data. The total intrinsic clearance (CLint,mic, μL/min/mg protein for microsomal incubation study and CLint,hep, μL/min/million cells for hepatocytes incubation study) was then calculated using the following equations:(4) CLint, mic=k×Volume of incubation medium (μL)/Protein in incubation medium (mg) (5) CLint,hep=k×Volume of incubation (μL)/Number of cells in incubation (×10^6) The unbound intrinsic clearance, with respect to the whole liver ([…]), was then estimated for the two cases. […]

[2] = Blood stability in rat blood (CLblood)
Description: In contrast, however, the compound was unstable in the rat blood and plasma. […] The blood containing IDP-73152 was incubated at 37 °C in a water bath, and aliquots (50 μL) were collected from the mixture at 0, 10, 30, 60, 120, and 240 min. The samples were centrifuged for 5 min at 10,000× g/4 °C, and the plasma was collected/stored at -80 °C until analysis. For the estimation of the clearance in the blood (CLblood), in rats, the disappearance of IDP-73152 in the blood was assumed to be mediated by first-order kinetics. […]×total volume of the blood×BP ) to calculate CLblood.

## CC(C)(C)[C@H](NC(=O)[C@H](CC1CCCC1)CN(O)C=O)C(=O)N1CCC(NCc2cc(F)c(F)cc2F)CC1 [IDP-73152]
In vitro; dog
  fraction unbound at 5 h: 0.507 ± 0.04
In vitro; human
  fraction unbound at 5 h: 0.579 ± 0.006
In vitro; mouse
  fraction unbound at 5 h: 0.571 ± 0.023
In vitro; rat
  fraction unbound at 5 h: 0.439 ± 0.043
[1]; human, liver microsomes, pH 7.4, humans, from microsomal stability data, well-stirred liver model, read-out: CLp expected in humans (converted)
  CLhep predicted at 1 μM: ~3.17 mL/min/kg
[1]; human, microsomes, pH 7.4
  microsomal CLint at 1 μM: 31.8 ± 2.2 µL/min/mg
[1]; humans, from microsomal clearance, well-stirred model
  hepatic ER (extraction ratio): 0.159 ± 0.009
[1]; humans, scaled up to the whole liver from microsomes
  CLu,int,H: 206 ± 14 L/h
[2]; fresh whole blood from rats, 1 μM, 37 °C
  CLblood: 0.717 ± 0.383 mL/min/kg
[2]; rats
  contribution of CLblood to the CLp: 2.15%
